Data as given in ChEMBL document CHEMBL5316328, “Discovery of AXL Degraders with Improved Potencies in Triple-Negative Breast Cancer (TNBC) Cells” (J Med Chem, 2023).
Active and inactive are the calls of the source. The calls are words filed in the database; no cut-off is given here.

Columns and labels:
MDA-MB-231 [1] = assay: Antiproliferative activity against human MDA-MB-231 cells expressing AXL assessed as inhibition of cell growth incubated for 72 hrs by CCK8 assay; format: functional, cell-based; settings: MDA-MB-231, 72 h
[2] = molecular target: T1, Protein cereblon/Tyrosine-protein kinase receptor UFO (Homo sapiens, UniProt P30530+Q96SW2); assay: PROTAC activity at CRBN/AXL in human MDA-MB-231 cells assessed as induction of AXL degradation at 40 nM preincubated with MG-132 for 2 hrs followed by compound treatment and measured after 24 hrs by Western blot analysis; format: cell-based
Target sequence in this assay (P30530 26-894 limits assumed): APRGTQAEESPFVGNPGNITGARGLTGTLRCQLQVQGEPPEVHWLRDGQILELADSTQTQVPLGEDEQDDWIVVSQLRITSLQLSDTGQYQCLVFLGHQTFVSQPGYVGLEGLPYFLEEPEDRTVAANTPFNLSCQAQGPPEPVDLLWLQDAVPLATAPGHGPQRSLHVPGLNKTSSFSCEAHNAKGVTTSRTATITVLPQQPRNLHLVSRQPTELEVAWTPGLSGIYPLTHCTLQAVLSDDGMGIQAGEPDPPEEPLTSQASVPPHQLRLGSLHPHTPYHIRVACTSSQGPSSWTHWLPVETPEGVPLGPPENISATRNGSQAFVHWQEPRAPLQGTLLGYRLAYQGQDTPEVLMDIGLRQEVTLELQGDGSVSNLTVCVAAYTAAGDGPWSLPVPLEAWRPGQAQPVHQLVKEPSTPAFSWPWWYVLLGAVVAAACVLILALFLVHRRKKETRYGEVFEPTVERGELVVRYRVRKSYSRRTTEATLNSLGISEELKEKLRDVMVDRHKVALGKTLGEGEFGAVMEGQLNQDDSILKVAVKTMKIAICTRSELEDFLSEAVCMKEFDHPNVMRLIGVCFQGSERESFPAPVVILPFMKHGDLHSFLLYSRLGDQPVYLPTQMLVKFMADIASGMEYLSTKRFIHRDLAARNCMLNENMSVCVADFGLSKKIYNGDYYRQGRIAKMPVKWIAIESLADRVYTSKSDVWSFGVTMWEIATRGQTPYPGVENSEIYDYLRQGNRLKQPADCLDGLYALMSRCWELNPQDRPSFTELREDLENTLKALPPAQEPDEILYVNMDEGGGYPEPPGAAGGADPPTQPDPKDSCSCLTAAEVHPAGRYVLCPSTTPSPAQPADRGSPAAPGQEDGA
Target sequence in this assay (Q96SW2 whole entry partner): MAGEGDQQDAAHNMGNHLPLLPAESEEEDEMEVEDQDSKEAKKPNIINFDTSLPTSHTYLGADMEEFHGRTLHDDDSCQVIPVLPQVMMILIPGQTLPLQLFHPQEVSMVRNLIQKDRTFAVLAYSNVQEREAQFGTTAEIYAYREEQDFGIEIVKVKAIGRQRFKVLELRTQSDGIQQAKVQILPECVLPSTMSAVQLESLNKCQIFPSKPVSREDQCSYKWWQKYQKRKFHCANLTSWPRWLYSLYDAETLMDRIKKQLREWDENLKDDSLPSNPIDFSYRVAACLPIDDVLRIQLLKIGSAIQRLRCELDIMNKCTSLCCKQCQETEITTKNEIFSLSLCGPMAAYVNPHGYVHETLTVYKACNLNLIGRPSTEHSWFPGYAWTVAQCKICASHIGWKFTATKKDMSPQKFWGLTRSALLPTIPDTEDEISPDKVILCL

MDA-MB-231 [3] = assay: Induction of apoptosis in human MDA-MB-231 cells assessed as early apoptotic cells at 100 nM incubated for 48 hrs by Annexin V-PE staining based flow cytometric analysis (reference value: 3.95 to 3.74%); format: functional
Mus musculus = assay: In vivo PROTAC activity at CRBN/AXL in human MDA-MB-231 cells xenografted Balb/c mouse assessed as degradation of AXL in tumor at 10 to 20 mg/kg, ip administered for 22 days and measured 24 hrs post last dose by Western blot analysis; format: functional, organism-based; settings: dose 10-20 mg/kg, time 23.0 day
[4] = molecular target: T1, Protein cereblon/Tyrosine-protein kinase receptor UFO; assay: PROTAC activity at CRBN/AXL in human MDA-MB-231 cells assessed as induction of AXL degradation at 40 nM incubated for 18 to 24 hrs by Western blot analysis; format: cell-based; settings: time 18-24 hrs
Target sequence in this assay (P30530 26-894 limits assumed): as the sequence (P30530 26-894 limits assumed) above
Target sequence in this assay (Q96SW2 whole entry partner): as the sequence (Q96SW2 whole entry partner) above

MDA-MB-436 = assay: Antiproliferative activity against human MDA-MB-436 cells expressing AXL assessed as inhibition of cell growth incubated for 72 hrs by CCK8 assay; format: functional, cell-based; settings: MDA-MB-436, 72 h
[5] = molecular target: ALK tyrosine kinase receptor (Homo sapiens, UniProt Q9UM73); assay: Inhibition of ALK (unknown origin)
Chain of ALK tyrosine kinase receptor (Q9UM73 whole entry): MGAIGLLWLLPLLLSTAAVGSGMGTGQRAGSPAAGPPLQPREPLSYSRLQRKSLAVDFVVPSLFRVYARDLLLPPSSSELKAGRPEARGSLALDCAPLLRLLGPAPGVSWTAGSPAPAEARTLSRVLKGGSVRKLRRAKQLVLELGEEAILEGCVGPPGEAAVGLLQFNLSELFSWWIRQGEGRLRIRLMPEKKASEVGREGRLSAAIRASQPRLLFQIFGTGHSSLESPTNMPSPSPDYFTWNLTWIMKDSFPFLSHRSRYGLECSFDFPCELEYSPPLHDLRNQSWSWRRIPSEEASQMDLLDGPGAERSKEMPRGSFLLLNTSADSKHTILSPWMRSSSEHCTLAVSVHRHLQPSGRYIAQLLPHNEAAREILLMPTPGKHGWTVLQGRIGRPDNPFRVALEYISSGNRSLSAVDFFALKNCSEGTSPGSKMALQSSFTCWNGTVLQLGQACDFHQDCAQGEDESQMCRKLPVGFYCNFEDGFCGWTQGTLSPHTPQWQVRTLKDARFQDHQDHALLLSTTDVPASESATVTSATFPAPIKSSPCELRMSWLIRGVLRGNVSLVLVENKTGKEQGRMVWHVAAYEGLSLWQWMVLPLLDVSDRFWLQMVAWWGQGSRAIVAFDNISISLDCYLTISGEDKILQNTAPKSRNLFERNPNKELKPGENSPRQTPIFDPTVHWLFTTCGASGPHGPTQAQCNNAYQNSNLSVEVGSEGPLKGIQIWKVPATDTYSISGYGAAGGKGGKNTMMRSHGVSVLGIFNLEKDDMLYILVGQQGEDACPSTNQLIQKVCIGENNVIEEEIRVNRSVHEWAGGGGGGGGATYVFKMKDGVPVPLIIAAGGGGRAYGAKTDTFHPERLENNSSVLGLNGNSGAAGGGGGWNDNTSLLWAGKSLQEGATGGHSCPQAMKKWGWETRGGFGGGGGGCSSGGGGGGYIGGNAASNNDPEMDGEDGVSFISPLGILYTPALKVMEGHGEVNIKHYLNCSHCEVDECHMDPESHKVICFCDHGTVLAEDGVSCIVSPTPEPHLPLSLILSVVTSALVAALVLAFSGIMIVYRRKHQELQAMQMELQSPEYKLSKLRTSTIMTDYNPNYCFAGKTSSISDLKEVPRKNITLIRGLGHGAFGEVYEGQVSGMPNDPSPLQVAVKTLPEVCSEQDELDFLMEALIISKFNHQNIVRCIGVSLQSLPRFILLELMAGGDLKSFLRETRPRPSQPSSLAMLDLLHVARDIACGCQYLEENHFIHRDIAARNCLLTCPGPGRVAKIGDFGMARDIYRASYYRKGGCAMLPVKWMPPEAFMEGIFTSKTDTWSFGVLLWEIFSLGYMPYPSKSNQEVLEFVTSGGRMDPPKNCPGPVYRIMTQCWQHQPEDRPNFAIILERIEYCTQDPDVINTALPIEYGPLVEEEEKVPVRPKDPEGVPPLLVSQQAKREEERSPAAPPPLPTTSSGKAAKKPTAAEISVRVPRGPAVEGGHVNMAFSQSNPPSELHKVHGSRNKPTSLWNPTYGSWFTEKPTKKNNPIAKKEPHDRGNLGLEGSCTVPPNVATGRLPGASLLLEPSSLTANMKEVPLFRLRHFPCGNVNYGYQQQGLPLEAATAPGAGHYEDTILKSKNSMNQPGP

[6] = molecular target: T1, Protein cereblon/Tyrosine-protein kinase receptor UFO; assay: PROTAC activity at CRBN/AXL in human MDA-MB-231 cells expressing AXL assessed as induction of AXL degradation at 0.016 to 10 nM incubated for 24 hrs by Western blot analysis; format: cell-based; settings: dose 0.016-10 nM
Target sequence in this assay (P30530 26-894 limits assumed): as the sequence (P30530 26-894 limits assumed) above
Target sequence in this assay (Q96SW2 whole entry partner): as the sequence (Q96SW2 whole entry partner) above

[7] = molecular target: T2, E3 ubiquitin-protein ligase ZFP91 (Homo sapiens) (UniProt Q96JP5); assay: Induction of ZFP91 degradation in human MDA-MB-231 cells at 10 uM incubated for 24 hrs by Western blot analysis; format: cell-based
T2 sequence (whole entry): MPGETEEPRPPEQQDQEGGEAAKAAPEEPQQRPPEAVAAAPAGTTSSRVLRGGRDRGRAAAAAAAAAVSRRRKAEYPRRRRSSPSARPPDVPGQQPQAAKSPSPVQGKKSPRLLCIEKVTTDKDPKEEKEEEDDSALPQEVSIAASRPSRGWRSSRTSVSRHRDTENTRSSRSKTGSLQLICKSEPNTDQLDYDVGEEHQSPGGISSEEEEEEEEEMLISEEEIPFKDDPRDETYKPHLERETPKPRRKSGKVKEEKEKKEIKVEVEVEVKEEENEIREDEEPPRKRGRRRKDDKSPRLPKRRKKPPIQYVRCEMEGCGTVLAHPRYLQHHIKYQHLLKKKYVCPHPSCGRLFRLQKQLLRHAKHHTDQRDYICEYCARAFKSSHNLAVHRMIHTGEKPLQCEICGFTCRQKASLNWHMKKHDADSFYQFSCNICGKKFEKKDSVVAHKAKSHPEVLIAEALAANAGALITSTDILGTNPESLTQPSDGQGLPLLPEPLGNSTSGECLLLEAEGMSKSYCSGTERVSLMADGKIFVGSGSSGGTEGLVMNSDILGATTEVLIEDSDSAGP

MDA-MB-231 [8] = assay: Antitumor activity against human MDA-MB-231 cells xenografted in Balb/c nude mouse assessed as tumor growth inhibition at 10 mg/kg, ip administered for 22 days and measured 24 hrs post last dose relative to control; format: functional; settings: MDA-MB-231, 552 h, time 23 day, read-out: TGI
MDA-MB-231 [9] = assay: Induction of cell cycle arrest in human MDA-MB-231 cells assessed as S phase cells at 33.3 nM incubated for 24 hrs by PI staining based flow cytometric analysis (reference value: 9.64 to 10.79%); format: functional
[10] = molecular target: T1, Protein cereblon/Tyrosine-protein kinase receptor UFO; assay: PROTAC activity at CRBN/AXL in human MDA-MB-231 cells assessed as induction of AXL degradation incubated for 24 hrs by immunoblot analysis; format: cell-based
MDA-MB-231 [11] = assay: Induction of cell cycle arrest in human MDA-MB-231 cells assessed as accumulation of cell at G2/M phase at 33.3 nM incubated for 24 hrs by PI staining based flow cytometric analysis (reference value: 24.34 to 24.44%); format: functional
[12] = molecular target: T1, Protein cereblon/Tyrosine-protein kinase receptor UFO; assay: PROTAC activity at CRBN/AXL in human MDA-MB-231 cells assessed as induction of AXL degradation by measuring ubiquitination of AXL at 40 nM preincubated with MG-132 for 2 hrs followed by compound treatment and measured after 24 hrs by coimmunoprecipitation analysis; format: cell-based
Target sequence in this assay (P30530 26-894 limits assumed): as the sequence (P30530 26-894 limits assumed) above
Target sequence in this assay (Q96SW2 whole entry partner): as the sequence (Q96SW2 whole entry partner) above

[13] = molecular target: Casein kinase I isoform alpha (Homo sapiens) (UniProt P48729); assay: Induction of CK1alpha degradation in human MDA-MB-231 cells at 10 uM incubated for 24 hrs by Western blot analysis; format: cell-based
Chain of Casein kinase I isoform alpha (Homo sapiens) (P48729 2-337 limits assumed): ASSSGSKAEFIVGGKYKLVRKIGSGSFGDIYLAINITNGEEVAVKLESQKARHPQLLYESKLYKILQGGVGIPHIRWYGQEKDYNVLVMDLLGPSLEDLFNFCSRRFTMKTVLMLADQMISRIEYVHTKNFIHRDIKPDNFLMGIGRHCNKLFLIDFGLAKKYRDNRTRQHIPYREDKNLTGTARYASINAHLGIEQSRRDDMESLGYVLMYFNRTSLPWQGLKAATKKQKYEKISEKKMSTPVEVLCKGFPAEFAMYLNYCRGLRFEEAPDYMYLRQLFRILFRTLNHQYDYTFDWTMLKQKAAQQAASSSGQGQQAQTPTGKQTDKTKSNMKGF

MDA-MB-231 [14] = assay: Induction of cell cycle arrest in human MDA-MB-231 cells assessed as S phase cells at 100 nM incubated for 24 hrs by PI staining based flow cytometric analysis (reference value: 9.64 to 10.79%); format: functional
MDA-MB-231 [15] = assay: Induction of apoptosis in human MDA-MB-231 cells assessed as viable cells at 300 nM incubated for 48 hrs by Annexin V-PE staining based flow cytometric analysis (reference value: 92.59 to 92.71%); format: functional; settings: read-out: Activity
MDA-MB-231 [16] = assay: Induction of apoptosis in human MDA-MB-231 cells assessed as early apoptotic cells at 33.3 nM incubated for 48 hrs by Annexin V-PE staining based flow cytometric analysis (reference value: 3.95 to 3.74%); format: functional
[17] = molecular target: Serine/threonine-protein kinase AKT (Homo sapiens) (UniProt P31751+Q9Y243+P31749); assay: Inhibition of AKT phosphorylation in human MDA-MB-231 incubated for 18 hrs by Western blot analysis; format: cell-based; settings: dose 1.2-100 nM
Chain of Serine/threonine-protein kinase AKT (Homo sapiens) (P31749 whole entry, looked up): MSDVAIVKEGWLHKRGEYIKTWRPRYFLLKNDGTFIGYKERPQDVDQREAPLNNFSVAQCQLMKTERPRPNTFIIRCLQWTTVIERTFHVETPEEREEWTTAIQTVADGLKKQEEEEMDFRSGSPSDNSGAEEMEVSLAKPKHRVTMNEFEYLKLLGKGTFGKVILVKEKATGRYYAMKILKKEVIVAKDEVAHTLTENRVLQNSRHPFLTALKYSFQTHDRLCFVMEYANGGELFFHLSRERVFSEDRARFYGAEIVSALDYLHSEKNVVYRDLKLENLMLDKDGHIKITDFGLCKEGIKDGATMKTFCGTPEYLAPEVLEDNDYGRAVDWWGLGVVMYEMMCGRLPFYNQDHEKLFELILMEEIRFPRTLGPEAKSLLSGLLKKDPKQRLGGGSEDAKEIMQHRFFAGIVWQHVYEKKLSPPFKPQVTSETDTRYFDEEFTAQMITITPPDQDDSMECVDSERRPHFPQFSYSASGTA
Chain of Serine/threonine-protein kinase AKT (Homo sapiens) (P31751 whole entry, looked up): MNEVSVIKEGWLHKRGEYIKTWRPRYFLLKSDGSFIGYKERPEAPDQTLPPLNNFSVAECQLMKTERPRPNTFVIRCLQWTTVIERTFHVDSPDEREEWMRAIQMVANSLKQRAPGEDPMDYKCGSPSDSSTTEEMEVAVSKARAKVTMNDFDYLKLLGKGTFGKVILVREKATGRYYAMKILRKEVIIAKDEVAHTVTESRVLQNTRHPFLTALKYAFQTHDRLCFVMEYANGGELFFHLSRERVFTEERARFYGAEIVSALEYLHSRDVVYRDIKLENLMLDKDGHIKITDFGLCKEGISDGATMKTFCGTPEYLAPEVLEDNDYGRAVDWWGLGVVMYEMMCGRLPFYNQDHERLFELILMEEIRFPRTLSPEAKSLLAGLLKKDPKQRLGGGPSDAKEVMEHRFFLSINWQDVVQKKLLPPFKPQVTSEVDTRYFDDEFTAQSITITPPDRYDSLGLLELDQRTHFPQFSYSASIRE
Chain of Serine/threonine-protein kinase AKT (Homo sapiens) (Q9Y243 whole entry, looked up): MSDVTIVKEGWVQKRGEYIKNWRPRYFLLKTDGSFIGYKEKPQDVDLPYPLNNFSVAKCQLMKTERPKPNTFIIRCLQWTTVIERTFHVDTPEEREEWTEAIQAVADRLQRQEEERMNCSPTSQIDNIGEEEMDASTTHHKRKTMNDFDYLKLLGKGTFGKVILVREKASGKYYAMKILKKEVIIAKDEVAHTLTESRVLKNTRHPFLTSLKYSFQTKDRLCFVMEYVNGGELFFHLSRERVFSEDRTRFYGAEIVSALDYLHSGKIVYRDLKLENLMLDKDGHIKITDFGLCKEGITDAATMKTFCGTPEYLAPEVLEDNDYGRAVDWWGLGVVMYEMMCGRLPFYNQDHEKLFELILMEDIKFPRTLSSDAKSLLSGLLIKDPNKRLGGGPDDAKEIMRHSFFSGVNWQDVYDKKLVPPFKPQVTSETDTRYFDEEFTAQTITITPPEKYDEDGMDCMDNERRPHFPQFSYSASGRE

MDA-MB-231 [18] = assay: Induction of apoptosis in human MDA-MB-231 cells assessed as necrotic cells at 300 nM incubated for 48 hrs by Annexin V-PE staining based flow cytometric analysis (reference value: 2.64 to 3.23%); format: functional
MDA-MB-231 [19] = assay: Induction of apoptosis in human MDA-MB-231 cells assessed as late apoptotic cells at 300 nM incubated for 48 hrs by Annexin V-PE staining based flow cytometric analysis (reference value: 0.32 to 0.82%); format: functional
MDA-MB-231 [20] = assay: Induction of apoptosis in human MDA-MB-231 cells assessed as viable cells at 100 nM incubated for 48 hrs by Annexin V-PE staining based flow cytometric analysis (reference value: 92.59 to 92.71%); format: functional; settings: read-out: Activity
MDA-MB-231 [21] = assay: Induction of apoptosis in human MDA-MB-231 cells assessed as upregulation of cleaved PARP expression by Western blot analysis; format: functional, cell-based; settings: dose 11.1-300 nM
MDA-MB-453 = assay: Antiproliferative activity against human MDA-MB-453 cells assessed as inhibition of cell growth incubated for 72 hrs by CCK8 assay; format: functional, cell-based; settings: MDA-MB-453, 72 h

## CCc1ccc2c(c1)c(=O)c(C(=O)Nc1ccc(Oc3ncnc4cc(OCCCCCC(=O)Nc5ccc6c(c5)CN(C5CCC(=O)NC5=O)C6=O)c(OC)cc34)c(F)c1)c(C)n2C (stereo not given)
MDA-MB-231 [1]
  IC50: 10 nM
[2]
  Activity: inactive
MDA-MB-231 [3]
  Activity: 14.51%
Mus musculus
  Activity: Active
[4]
  Activity: Active
MDA-MB-436
  IC50: 5 nM
[5]
  IC50: 4.94 nM
[6]
  Activity: Active
[7]
  Activity: inactive
MDA-MB-231 [8]
  inhibition in vivo at 10 mg/kg: 40.9%
MDA-MB-231 [9]
  Activity: 14.52%
[10]
  Activity: Dose-Dependent Effect
  EC50: 5 nM
MDA-MB-231 [11]
  Activity: 22.85%
[12]
  Activity: inactive
[13]
  Activity: inactive
MDA-MB-231 [14]
  Activity: 15.78%
MDA-MB-231 [15]
  viability at 0.3 µM: 74.1%
MDA-MB-231 [16]
  Activity: 6.69%
[17]
  inhibition: Dose-Dependent Effect
MDA-MB-231 [18]
  Activity: 4.59%
MDA-MB-231 [19]
  Activity: 0.79%
MDA-MB-231 [20]
  viability at 0.1 µM: 83.4%
MDA-MB-231 [21]
  Activity: Dose-Dependent Effect
MDA-MB-453
  IC50: > 5000 nM
